Experimental data taken from patent publication US6723702B2, “Use of relaxin treat diseases related to vasoconstriction” (RAS Medical, Inc., priority 2000, dated 2004).

Assays:
THP-1 cells = assay: THP-1 cells: VEGF and bFGF mRNA induction; assay type: cell-based, human; details: 100 ng/ml for 3 hours (FIG. 9)
Method: Sense and anti-sense primers for use with the real time RT-PCR, ABI Prism 7700 Sequence Detection System were designed using the PrimerExpress version 1.0 software (PE Applied Biosystems, Inc.). Rat and human specific primer/probe sets included those for GAPDH, bFGF, the VEGF 164 aa or 120 aa rat isoforms, and their respective human homologues (VEGF 165 and VEGF 121). ABI PRISM specific primer/probes were purchased from BioSource International Inc. or PE Applied Biosystems.
RT-PCR was performed on 150 ng for the analysis of VEGF and bFGF mRNA expression. Ten nanograms of total RNA was used for GAPDH niRNA expression. […] Data were analyzed using Sequence Detector v1.6.3 software (Applied Biosystems/PE). […]
Because macrophages are the inflammatory cells predominantly responsible for the angiogenic response that occurs during healing, a monocyte/macrophage cell line shown previously to bind relaxin with high affinity (THP-1) (Parsell et al. (1996) J. Biol. Chem. 271:27936-27941) was tested for relaxin inducibility of VEGF and bFGF. […] In order to determine whether the increase in VEGF mRNA observed following short-term relaxin treatment was reflected by an elevation in secreted VEGF protein, THP-1 cells were treated with relaxin (0.01-100 ng/ml) for 24 h, the conditioned media collected, and VEGF content in the media quantified by ELISA. […]

human subjects = assay: Clinical trial: blood pressure and creatinine clearance; assay type: in vivo
Method: A clinical trial was conducted with human subjects, age 18 to 70 years. Subjects were treated with either 10 μg relaxin/kg body weight/day (minimum of 36 subjects), 25 μg relaxin/kg body weight/day (minimum of 72 subjects), or placebo (minimum of 72 subjects) for 24 weeks. Administration was by continuous subcutaneous infusion, using a pump. The relaxin was recombinant human relaxin (rhRlx). At various time points, diastolic blood pressure, systolic blood pressure, and creatinine clearance (as a measure of renal function) were measured. Creatinine clearance was calculated using the following formulas:
Creatinine clearance=((140−age)×weight (kg)/72×serum creatinine (mg/dL))×0.85
Creatinine clearance=(140−age)×weight (kg)/72×serum creatinine (mg/dL)
The change in each measured parameter was calculated (value at week x-week 0 value). […] The threshold for obtaining this effect was greater than 10 μg rhRLXN/kg/day. […] This latter result indicates an increase in blood flow.

## rhRLX: recombinant human relaxin, identical in amino acid sequence to the product of the human H2 gene; A chain of 24, B chain of 29 amino acids
THP-1 cells
  Transcripts for VEGF: specifically upregulated
Human subjects; 10 μg rhRLXN/kg/day (FIG. 12)
  renal function, as measured by creatinine clearance: improvement
Human subjects; 25 μg rhRLXN/kg/day (FIG. 13)
  renal function, as measured by creatinine clearance: improvement
Human subjects; 25 μg/kg/day s.c. infusion, about week 2 through week 24 (FIG. 10)
  diastolic pressure: reduced
Human subjects; 25 μg/kg/day s.c. infusion, about week 2 through week 24 (FIG. 11)
  systolic pressure: reduced
Human subjects; human, in vivo
  threshold for reducing diastolic and systolic pressure: greater than 10 μg rhRLXN/kg/day
